Data: publication PMC9177597, “Structural basis of substrate recognition and translocation by human very long-chain fatty acid transporter ABCD1” (Nature Communications, 2022)

Tests used:
chABCD1 (chimeric ABCD1) [1] = target: T1, chABCD1 (chimeric ABCD1) (Homo sapiens, UniProt P33897); assay: substrate-stimulated ATPase assay (colorimetric Pi release); type: biochemical
T1 construct: single polypeptide: N-terminal FLAG tag, PMP-4 residues 1-65 replacing human ABCD1 residues 1-63, then human ABCD1 64-745; HEK293F; homodimer; LMNG/CHS for assays, digitonin for cryo-EM; with PMP-4 (peroxisomal membrane protein related, ABCD1 homolog, Caenorhabditis elegans; N-terminal segment fused to the target chain)
T1 sequence (P33897 64-745): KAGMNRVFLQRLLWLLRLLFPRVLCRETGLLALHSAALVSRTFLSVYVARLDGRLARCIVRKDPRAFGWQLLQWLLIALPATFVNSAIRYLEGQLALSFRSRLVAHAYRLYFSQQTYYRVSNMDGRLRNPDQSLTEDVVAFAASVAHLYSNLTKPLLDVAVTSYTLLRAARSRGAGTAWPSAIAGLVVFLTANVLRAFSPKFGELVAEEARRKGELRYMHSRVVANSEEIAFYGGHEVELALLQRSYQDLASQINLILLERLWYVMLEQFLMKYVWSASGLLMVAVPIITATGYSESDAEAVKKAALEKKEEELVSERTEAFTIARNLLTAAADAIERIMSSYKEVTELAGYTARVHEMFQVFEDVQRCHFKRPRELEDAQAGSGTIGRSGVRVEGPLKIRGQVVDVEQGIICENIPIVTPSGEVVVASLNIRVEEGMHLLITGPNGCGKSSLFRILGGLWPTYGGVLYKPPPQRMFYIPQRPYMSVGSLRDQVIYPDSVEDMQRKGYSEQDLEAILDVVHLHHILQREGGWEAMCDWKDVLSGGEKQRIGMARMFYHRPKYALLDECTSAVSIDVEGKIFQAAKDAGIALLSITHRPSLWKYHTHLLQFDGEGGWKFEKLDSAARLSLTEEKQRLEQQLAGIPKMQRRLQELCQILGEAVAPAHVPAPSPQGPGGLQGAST

[2] = target: chimeric ABCD1, C-terminal helix truncated variant (ΔGlu694-Thr745) (Caenorhabditis elegans | human) (UniProt O45730)
chABCD1 (chimeric ABCD1) [3] = target: T1, chABCD1 (chimeric ABCD1); assay: ATPase assay (colorimetric Pi release); type: biochemical; conditions: varying ATP, with or without C22:0-CoA, 2 mM MgCl2, LMNG + CHS, pH 7.5, 37 °C; Michaelis-Menten fit

Compound	EC50 (chABCD1 (chimeric ABCD1) [1])	other results
CCCCCCCCCCCCCCCCCCCCCCCC(=O)SCCNC(=O)CCNC(=O)[C@H](O)C(C)(C)COP(=O)(O)OP(=O)(O)OC[C@H]1O[C@@H](n2cnc3c(N)ncnc32)[C@H](O)[C@@H]1OP(=O)(O)O [C24:0-CoA]	~2000 nM	
CCCCCCCCCCCCCCCCCCCCCCCCCC(=O)SCCNC(=O)CCNC(=O)[C@H](O)C(C)(C)COP(=O)(O)OP(=O)(O)OC[C@H]1O[C@@H](n2cnc3c(N)ncnc32)[C@H](O)[C@@H]1OP(=O)(O)O [C26:0-CoA]	~2000 nM	
chimeric ABCD1, C-terminal helix truncated variant (ΔGlu694-Thr745) (from UniProt O45730 1-65; P33897 64-693)		Vmax of C22:0-CoA-stimulated ATPase activity (LMNG + CHS, 2 mM ATP) (mol Pi/min/mol protein) [2]: 17.5
Nc1ncnc2c1ncn2[C@@H]1O[C@H](COP(=O)(O)OP(=O)(O)OP(=O)(O)O)[C@@H](O)[C@H]1O [ATP]		Km (chABCD1 (chimeric ABCD1) [3]): The data points were fitted with a Michaelis-Menten equation
